The results in this text go back to patent publication US6781000B1, “Alpha-ketoamide inhibitors of 20S proteasome” (CV Theurapeutics, Inc., priority 1998, dated 2004).

In this test the target is T1, chymotrypsin-like activity of 20S proteasome (Bos taurus, UniProt Q2TBX6+Q32KL2).
T1 construct: was purified to homogeneity from bovine brain according to published methods; from tissue; host or cells: bovine brain
Put plainly: 20S proteasome chymotryptic activity inhibition assay (Suc-Leu-Leu-Val-Tyr-AMC cleavage). Type of test: biochemical. The following applies: 2 μg 20S proteasome from bovine brain, 50 μM fluorogenic substrate, 15 minutes at 37° C., pH7.5. How it is done:
Compounds of this invention prepared according to the method of Example 1 were tested as follows. The 20S catalytic subunit of the proteasome (also known as the multicatalytic proteinase complex) was purified to homogeneity from bovine brain according to published methods (Wilk S. and Orlowski,M 1983, 40 842 J.Neurochem). The chymotryptic activity of the complex is measured by the increase in fluorescence following cleavage of the substrate peptide succinyl-leucine-leucine-valine-tyrosine-7-amino-4methyl coumarin. The standard in vitro assay consists of 2 μg 20S proteasome, 0.1-100 μg/ml proteasome inhibitor in 200 μl 50 mM HEPES, containing 0.1% sodium dodecyl sulphate, pH7.5. The proteolytic reaction is initiated by the addition of 50 μM flourogenic peptide substrate and allowed to progress for 15 minutes at 37° C. The reaction is terminated by the addition of 100 μL of 100 mM acetate buffer, pH4.0. The rate of proteolysis is directly proportional to the amount of liberated aminomethylcoumarin which is measured by fluorescent spectroscopy (EX 370 nm, EM 430 nm).

For the compound `CC(C)CC(NC(=O)CNC(=O)C(=O)Cc1c[nH]c2ccccc12)C(=O)NC(Cc1ccccc1)C(=O)O` (stereo not drawn) [Compound 104], the “IC50 for the inhibition of the chymotrypsin-like activity of 20S proteasome” value (“IC50 for the inhibition” below) is above 10 µg/mL.
The same measure, in the same setting: the figure for `CC(C)CC(NC(=O)CCNC(=O)C(=O)Cc1c[nH]c2ccccc12)C(=O)NC(Cc1ccccc1)C(=O)O` (stereo not drawn) [Compound 105] is above 10 µg/mL; for `CCCCC(NC(=O)C(=O)Cc1c[nH]c2ccccc12)C(=O)NC(CC(C)C)C(=O)NC(Cc1ccccc1)C(=O)O` (stereo not drawn) [Compound 106] it is above 10 µg/mL.
Same read-out and setting: the figure for `CC(C)CC(NC(=O)C(Cc1ccccc1)NC(=O)C(=O)Cc1c[nH]c2ccccc12)C(=O)NC(Cc1ccccc1)C(=O)O` (stereo not drawn) [Compound 107] is above 10 µg/mL.
On the same count and under the same terms, the figure for `CC(C)CC(NC(=O)C(NC(=O)C(=O)Cc1c[nH]c2ccccc12)C(C)O)C(=O)NC(Cc1ccccc1)C(=O)O` (stereo not drawn) [Compound 108] is above 10 µg/mL; for `CC(C)CC(NC(=O)C(C)NC(=O)C(=O)Cc1c[nH]c2ccccc12)C(=O)NC(Cc1ccccc1)C(=O)O` (stereo not drawn) [Compound 109] it is above 10 µg/mL; for `CC(C)CC(NC(=O)C(CC(=O)O)NC(=O)C(=O)Cc1c[nH]c2ccccc12)C(=O)NC(Cc1ccccc1)C(=O)O` (stereo not drawn) [Compound 110] it is above 10 µg/mL.
For `CC(C)CC(NC(=O)C(NC(=O)C(=O)Cc1c[nH]c2ccccc12)C(C)C)C(=O)NC(Cc1ccccc1)C(=O)O` (stereo not drawn) [Compound 111], the “IC50 for the inhibition” value is above 10 µg/mL.
As to `CC(C)CC(NC(=O)C(Cc1ccc(O)cc1)NC(=O)C(=O)Cc1c[nH]c2ccccc12)C(=O)NC(Cc1ccccc1)C(=O)O` (stereo not drawn) [Compound 113], the “IC50 for the inhibition” value is above 10 µg/mL.
Still for that read-out and setting: the figure for `CCCCC(NC(=O)C(CC(C)C)NC(=O)CNC(=O)C(=O)Cc1c[nH]c2ccccc12)C(=O)O` (stereo not drawn) [Compound 119] is above 10 µg/mL; for `CCCCC(NC(=O)C(CC(C)C)NC(=O)CCNC(=O)C(=O)Cc1c[nH]c2ccccc12)C(=O)O` (stereo not drawn) [Compound 120] it is above 10 µg/mL; for `CCCCC(NC(=O)C(CC(C)C)NC(=O)C(CCCC)NC(=O)C(=O)Cc1c[nH]c2ccccc12)C(=O)O` (stereo not drawn) [Compound 121] it is above 10 µg/mL.
Same read-out and setting: the figure for `CCCCC(NC(=O)C(CC(C)C)NC(=O)C(Cc1ccccc1)NC(=O)C(=O)Cc1c[nH]c2ccccc12)C(=O)O` (stereo not drawn) [Compound 122] is above 10 µg/mL.
On the same count and under the same terms, the figure for `CCCCC(NC(=O)C(CC(C)C)NC(=O)C(NC(=O)C(=O)Cc1c[nH]c2ccccc12)C(C)O)C(=O)O` (stereo not drawn) [Compound 123] is above 10 µg/mL; for `CCCCC(NC(=O)C(CC(C)C)NC(=O)C(C)NC(=O)C(=O)Cc1c[nH]c2ccccc12)C(=O)O` (stereo not drawn) [Compound 124] it is above 10 µg/mL.
Take `CCCC[C@H](NC(=O)[C@@H](CC(C)C)NC(=O)[C@H](CC(=O)O)NC(=O)C(=O)Cc1c[nH]c2ccccc12)C(=O)O` [Compound 125]: the IC50 was above 18.4 µM.
Take `CCCCC(NC(=O)C(CC(C)C)NC(=O)C(NC(=O)C(=O)Cc1c[nH]c2ccccc12)C(C)C)C(=O)O` (stereo not drawn) [Compound 126]: the “IC50 for the inhibition” value is above 10 µg/mL.
As for `CCCCC(NC(=O)C(CC(C)C)NC(=O)C(CCC)NC(=O)C(=O)Cc1c[nH]c2ccccc12)C(=O)O` (stereo not drawn) [Compound 127], the IC50 was above 18.9 µM.
For the compound `CCCCC(NC(=O)C(CC(C)C)NC(=O)C(Cc1ccc(O)cc1)NC(=O)C(=O)Cc1c[nH]c2ccccc12)C(=O)O` (stereo not drawn) [Compound 128], the “IC50 for the inhibition” value is above 10 µg/mL.
On the same count and under the same terms, the figure for `CC(C)CC(NC(=O)CNC(=O)C(=O)Cc1c[nH]c2ccccc12)C(=O)NC(CC(=O)O)C(=O)O` (stereo not drawn) [Compound 134] is above 10 µg/mL; for `CC(C)CC(NC(=O)CCNC(=O)C(=O)Cc1c[nH]c2ccccc12)C(=O)NC(CC(=O)O)C(=O)O` (stereo not drawn) [Compound 135] it is above 10 µg/mL; for `CCCCC(NC(=O)C(=O)Cc1c[nH]c2ccccc12)C(=O)NC(CC(C)C)C(=O)NC(CC(=O)O)C(=O)O` (stereo not drawn) [Compound 136] it is above 10 µg/mL.
Still for that read-out and setting: the figure for `CC(C)CC(NC(=O)C(Cc1ccccc1)NC(=O)C(=O)Cc1c[nH]c2ccccc12)C(=O)NC(CC(=O)O)C(=O)O` (stereo not drawn) [Compound 137] is above 10 µg/mL; for `CC(C)CC(NC(=O)C(NC(=O)C(=O)Cc1c[nH]c2ccccc12)C(C)O)C(=O)NC(CC(=O)O)C(=O)O` (stereo not drawn) [Compound 138] it is above 10 µg/mL; for `CC(C)CC(NC(=O)C(C)NC(=O)C(=O)Cc1c[nH]c2ccccc12)C(=O)NC(CC(=O)O)C(=O)O` (stereo not drawn) [Compound 139] it is above 10 µg/mL.
The same measure, in the same setting: the figure for `CCC(NC(=O)C(=O)Cc1c[nH]c2ccccc12)C(=O)NC(CC(C)C)C(=O)NC(CC(=O)O)C(=O)O` (stereo not drawn) [Compound 140] is above 10 µg/mL; for `CC(C)CC(NC(=O)C(NC(=O)C(=O)Cc1c[nH]c2ccccc12)C(C)C)C(=O)NC(CC(=O)O)C(=O)O` (stereo not drawn) [Compound 141] it is above 10 µg/mL; for `CCCC(NC(=O)C(=O)Cc1c[nH]c2ccccc12)C(=O)NC(CC(C)C)C(=O)NC(CC(=O)O)C(=O)O` (stereo not drawn) [Compound 142] it is above 10 µg/mL.
Regarding `CC(C)CC(NC(=O)C(Cc1ccc(O)cc1)NC(=O)C(=O)Cc1c[nH]c2ccccc12)C(=O)NC(CC(=O)O)C(=O)O` (stereo not drawn) [Compound 143], the “IC50 for the inhibition” value is above 10 µg/mL.
Same read-out and setting: the figure for `CC(C)CC(NC(=O)CCNC(=O)C(=O)Cc1c[nH]c2ccccc12)C(=O)NC(CCC(=O)O)C(=O)O` (stereo not drawn) [Compound 150] is above 10 µg/mL; for `CCCCC(NC(=O)C(=O)Cc1c[nH]c2ccccc12)C(=O)NC(CC(C)C)C(=O)NC(CCC(=O)O)C(=O)O` (stereo not drawn) [Compound 151] it is above 10 µg/mL; for `CC(C)CC(NC(=O)C(Cc1ccccc1)NC(=O)C(=O)Cc1c[nH]c2ccccc12)C(=O)NC(CCC(=O)O)C(=O)O` (stereo not drawn) [Compound 152] it is above 10 µg/mL.
The same measure, in the same setting: the figure for `CC(C)CC(NC(=O)C(NC(=O)C(=O)Cc1c[nH]c2ccccc12)C(C)O)C(=O)NC(CCC(=O)O)C(=O)O` (stereo not drawn) [Compound 153] is above 10 µg/mL; for `CC(C)CC(NC(=O)C(C)NC(=O)C(=O)Cc1c[nH]c2ccccc12)C(=O)NC(CCC(=O)O)C(=O)O` (stereo not drawn) [Compound 154] it is above 10 µg/mL.
Same read-out and setting: the figure for `CC(C)CC(NC(=O)C(CC(=O)O)NC(=O)C(=O)Cc1c[nH]c2ccccc12)C(=O)NC(CCC(=O)O)C(=O)O` (stereo not drawn) [Compound 155] is above 10 µg/mL; for `CC(C)CC(NC(=O)C(NC(=O)C(=O)Cc1c[nH]c2ccccc12)C(C)C)C(=O)NC(CCC(=O)O)C(=O)O` (stereo not drawn) [Compound 156] it is above 10 µg/mL.

A word on the IC50: it is the point on the concentration scale where inhibition reaches its midpoint. Low values mean greater potency, high ones weaker potency.
